Data set [1] addresses T1, human mineralocorticoid receptor (hMR) (Homo sapiens, UniProt P08235).
T1 construct: expressed in transfected cells; host or cells: HEK293
T1 sequence (P08235 726-964 limits assumed): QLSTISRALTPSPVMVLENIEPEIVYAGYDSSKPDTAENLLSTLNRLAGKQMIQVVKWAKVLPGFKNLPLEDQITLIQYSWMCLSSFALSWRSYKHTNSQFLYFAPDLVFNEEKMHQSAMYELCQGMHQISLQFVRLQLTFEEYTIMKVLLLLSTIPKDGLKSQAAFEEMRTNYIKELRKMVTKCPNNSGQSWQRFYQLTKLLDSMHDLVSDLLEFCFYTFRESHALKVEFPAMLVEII
As to the kind of experiment: GAL4-hMR-LBD luciferase reporter assay in HEK293 cells with 1 nM aldosterone (Test Example 1).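 On Imax: 0% is DMSO-only control and 100% is 1 nM aldosterone alone.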 It is filed as cell-based. To be noted: for Emax: HEK293, read-out: Imax; for IC50: concentration showing Imax/2, HEK293, GAL4-hMR-LBD, 1 nM aldosterone, overnight, read-out: ICmax50. On the procedure:
A plasmid pM-hMR-LBD expressing GAL4-hMR receptor, which has a ligand binding domain (LBD, corresponding to approximately 308 amino acids at the carboxy terminus) of human mineralocorticoid receptor (hMR, NM_000901) bonded to a DNA binding domain of yeast transcription factor GAL4 (corresponding to 147 amino acids at the amino terminus), was prepared. Reporter assay was conducted by using a reporter plasmid (such as plasmid pFR-Luc of […] CLONING SYSTEMS) including a luciferase gene, having a sequence (UAS sequence) which binds to the DNA binding domain of GAL4.
The plasmid pM-hMR-LBD and the reporter plasmid as obtained above were gene transferred into renal cell line HEK293 of human fetus by lipofection. On the next day, cells were collected by trypsin treatment, and dispensed with DMEM culture medium containing 5% of FBS treated by activated charcoal, to a white 96-well plate (Costar) with the amount of 95 microliter per well.
The test compounds were used as dissolved in dimethyl sulfoxide at a predetermined concentration, and the test compounds suitably diluted with culture media were added to the cells on the white 96-well plate so that the final concentration becomes 0.1%. […] After the addition, cultivation was carried out overnight.
On the next day, the culture media was removed, and then luciferase substrate (Wako Pure Chemical Industries, Ltd.) was prepared in accordance with the attached document and were added to each well by 50 microliters. Stirring was conducted for approximately 30 minutes, and the amount of luminescence was measured for each well by using Analyst (Molecular Devices), to obtain luciferase activity. A graph which plots relative luciferase activity values, when the luciferase activity value of Control group 1 was taken as 0% and the luciferase activity value of Control group 2 was taken as 100%, for each of the amount of the test compound addition group was made.

Data set [2] in a line: Plasma concentration after intragastric administration to cynomolgus monkey (Test Example 2). It is filed as in vivo. To be noted: male cynomolgus monkey, 3 mg/kg intragastric in 0.5% MC, plasma, LC-MS/MS; for AUC, area under the plasma concentration versus time curve: noncompartment model; for Cmax: po, read-out: Cmax, maximum concentration. On the procedure: Cynomolgus monkey (male) was used, and it was fasted from the day before administration of the test compound.
Administration samples were prepared by adding a 0.5% MC (methyl cellulose) solution to the Test Compound, so that the dose becomes 3 mg/2 mL/kg. Each of the administration samples was administered intragastrically to the cynomolgus monkey by using a tube. After the samples were administered, approximately 5 mL of 0.5% MC was administered. For each of the administration samples, a group of two cynomolgus monkeys was administered.
With respect to collection of blood, it was conducted by collecting approximately 0.5 mL of blood from crotch vein using a glass syringe treated with heparin, before administration, and 30 minutes, 1, 2, 4, 6, 8, 24 and 48 hours after administration. Blood was centrifuged (1,700×g, 15 min, 4° C.) to obtain plasma. Plasma was stored in a freezer (−20° C.) until pretreatment.
Preparation of standard solution and internal standard (IS) solution: Each of the Test Compounds was dissolved in DMSO (dimethyl sulfoxide) to prepare a solution of 10 mM each. Each of the compound solution was diluted with acetonitrile, and thus standard solution was prepared. Further, niflumic acid (Wako Pure Chemical Industries, Ltd.) was dissolved in DMSO at the concentration of 2 mM, followed by dilution with acetonitrile to prepare an IS solution of 2 μM.
Pretreatment of plasma samples: 20 μL of plasma sample was collected, and then 25 μL of purified water, 100 μL of acetonitrile, and 100 μL of methanol was added. For the preparation of a calibration curve, 25 μL of purified water, 20 μL of each of the standard solutions (acetonitrile solution), 80 μL of acetonitrile, and 100 μL of methanol were added to 20 μL of blank plasma. 40 μL of the acetonitrile solution of IS was added to all of the samples, and then the samples were stirred, filtered by suction using Captiva filter plate (Varian, Inc.), and then the filtrate was used as the sample for LC-MS/MS analysis.
Quantitative Determination of Test Compound: Concentration in plasma was analyzed by LC-MS/MS method for each Test Compound.
Analysis: Pharmacokinetic parameter was calculated from concentration of each of the drugs in plasma, by using WinNonlin Professional (Ver. 4.0.1, Pharsight Corporation). Here, Noncompartment model was used as the model for parameter calculation.

Data on eleven molecules can be found in patent publication US8642640B2, “1-phenylpyrrole derivatives” (Exelixis, Inc., priority 2008, dated 2014).

`Cc1c(C(=O)Nc2ccc(S(C)(=O)=O)cc2)cc(C[C@H](C)O)n1-c1ccc(Cl)cc1Cl` (single isomer, unassigned) [Example 43 - isomer A]: in data set [1], the Emax was determined as 123% and the IC50 came out at 5.5 nM. For the same molecule, in data set [2], the “AUC, area under the plasma concentration versus time curve” value was determined as 14820 ng·h/mL and the Cmax was found to be 1140 ng/mL.

Consider `Cc1c(C(=O)Nc2ccc(S(C)(=O)=O)cc2)cc(C[C@H](C)O)n1-c1ccc(F)cc1C(F)(F)F` (single isomer, unassigned) [Example 5 - isomer A], for which, in data set [1], the Emax was 119% and the IC50 is 3.4 nM. In data set [2], the “AUC, area under the plasma concentration versus time curve” value was determined as 31310 ng·h/mL and the Cmax amounted to 1600 ng/mL.

With `CCc1c(C(=O)Nc2ccc(S(C)(=O)=O)cc2)cc(C[C@H](C)O)n1-c1ccc(F)cc1Cl` (single isomer, unassigned) [Example 44 - isomer B], in data set [1], the Emax is 98% and the IC50 was 12 nM. Moreover, in data set [2], the “AUC, area under the plasma concentration versus time curve” value was 16920 ng·h/mL and the Cmax amounted to 940 ng/mL.

For the molecule `Cc1cc(C(=O)Nc2ccc(S(C)(=O)=O)cc2)c(C)n1-c1ccccc1C(F)(F)F` [Reference compound A, 1-[2-(trifluoromethyl)phenyl]-2,5-dimethyl-N-[4-(methylsulfonyl)phenyl]-1H-pyrrole-3-carboxamide, reference compound], in data set [1], the Emax worked out at 114% and the IC50 was determined as 14 nM. In data set [2], the “AUC, area under the plasma concentration versus time curve” value turned out to be 30 ng·h/mL and the Cmax was under 10 ng/mL.

Take `Cc1c(C(=O)Nc2ccc(S(C)(=O)=O)cc2)cc(C[C@H](C)O)n1-c1ccc(Cl)cc1OC(F)(F)F` (single isomer, unassigned) [Example 42 - isomer B]: in data set [1], the Emax came to 95% and the IC50 turned out to be 2.7 nM. Moreover, in data set [2], the “AUC, area under the plasma concentration versus time curve” value is 23860 ng·h/mL and the Cmax is 1660 ng/mL.

Consider `Cc1c(C(=O)Nc2ccc(S(C)(=O)=O)cc2)cc(CCF)n1-c1ccc(F)cc1OC(F)F` (single isomer, unassigned) [Example 54 - isomer A, 1-[2-(Difluoromethoxy)-4-fluorophenyl]-5-(2-fluoroethyl)-2-methyl-N-[4-(methylsulfonyl)phenyl]-1H-pyrrole-3-carboxamide], for which, in data set [1], the Emax was determined as 99% and the IC50 came out at 6.5 nM. Besides, in data set [2], the “AUC, area under the plasma concentration versus time curve” value came to 11410 ng·h/mL and the Cmax was 970 ng/mL.

In the case of `Cc1c(C(=O)Nc2ccc(S(C)(=O)=O)cc2)cc(C[C@H](C)O)n1-c1ccc(F)cc1Cl` (single isomer, unassigned) [Example 40 - isomer A], in data set [1], the Emax is 91% and the IC50 was found to be 9.6 nM. Further, in data set [2], the “AUC, area under the plasma concentration versus time curve” value amounted to 15110 ng·h/mL and the Cmax came out at 1300 ng/mL.

As to `Cc1c(C(=O)Nc2ccc(S(C)(=O)=O)cc2)cc(C[C@H](C)O)n1-c1ccc(Cl)cc1C(F)(F)F` (single isomer, unassigned) [Example 6 - isomer A], in data set [1], the Emax amounted to 79% and the IC50 was determined as 3.1 nM. Also, in data set [2], the “AUC, area under the plasma concentration versus time curve” value stood at 30280 ng·h/mL and the Cmax is 1730 ng/mL.

On to `Cc1c(C(=O)Nc2ccc(S(C)(=O)=O)cc2)cc(C[C@H](C)O)n1-c1ccc(Cl)cc1OC(F)F` (single isomer, unassigned) [Example 11 - isomer A], for which, in data set [1], the Emax came out at 89% and the IC50 was determined as 7.3 nM. Further, in data set [2], the “AUC, area under the plasma concentration versus time curve” value was 24810 ng·h/mL and the Cmax came out at 1600 ng/mL.

Regarding `Cc1c(C(=O)Nc2ccc(S(C)(=O)=O)cc2)cc(CCO)n1-c1ccc(Cl)cc1C(F)(F)F` (single isomer, unassigned) [Example 1 - isomer A, 1-[4-Chloro-2-(trifluoromethyl)phenyl]-5-(2-hydroxyethyl)-2-methyl-N-[4-(methylsulfonyl)phenyl]-1H-pyrrole-3-carboxamide], in data set [1], the Emax was determined as 87% and the IC50 was 3.7 nM. In data set [2], the “AUC, area under the plasma concentration versus time curve” value came out at 14110 ng·h/mL and the Cmax amounted to 990 ng/mL.

Turning to `Cc1cc(C(=O)Nc2ccc(S(C)(=O)=O)cc2)c(C)n1-c1ccc(F)cc1C(F)(F)F` [Reference compound B, 1-[4-fluoro-2-(trifluoromethyl)phenyl]-2,5-dimethyl-N-[4-(methylsulfonyl)phenyl]-1H-pyrrole-3-carboxamide, reference compound], in data set [1], the Emax is 93% and the IC50 was found to be 12 nM. In data set [2], the “AUC, area under the plasma concentration versus time curve” value worked out at 170 ng·h/mL and the Cmax came out at 10 ng/mL.
